Reference: PubChem BioAssay (NCI)
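Values below derive from 48-hour exposures of cells grown in 96-well plates, with endpoints linearly interpolated between the two concentrations bracketing the appropriate inhibition level. The concentration for full growth arrest is given as TGI.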 Where a SMILES comes first, the peptide text is derived from it. [ ]: non-standard residue; d: D form. The star is where a group is joined. β3hI = CC[CH](C)[CH](N)CC(=O)O; Octanoyl = CCCCCCCC(=O)*; Aib = CC(C)(N)C(=O)O; tBu = CC(C)(C)*

Experiments:
Assay in all cases: growth of human tumour cells (NCI), 48 h
[1] = system: HCC-2998 colon
[2] = system: PC-3 prostate
[3] = system: HOP-92 NSCLC
[4] = system: MCF7 breast
[5] = system: KM12 colon
[6] = system: NCI/ADR-RES ovarian
[7] = system: U251 CNS
[8] = system: MDA-MB-231 breast
[9] = system: IGROV1 ovarian

| SMILES | TGI [1] [µM] | TGI [2] [µM] | TGI [3] [µM] | TGI [4] [µM] | TGI [5] [µM] | TGI [6] [µM] | TGI [7] [µM] | TGI [8] [µM] | TGI [9] [µM] |
| --- | --- | --- | --- | --- | --- | --- | --- | --- | --- |
| Cc1cccc(-c2cc(=S)c3cc(N4CCCC4)ccc3[nH]2)c1 | > 100 | > 100 | > 100 | > 100 | > 100 | > 100 | > 100 | > 100 | – |
| CCOC(=O)CCC(NC(=O)c1ccc(Nc2nc3ccccc3nc2-c2cccs2)cc1)C(=O)OCC (stereo unspecified) | > 100 | > 100 | > 100 | > 100 | > 100 | > 100 | > 100 | > 100 | > 100 |
| CC(=O)N[C@H]1CCCC[C@@H]1OC(C)=O | > 100 | > 100 | > 100 | > 100 | > 100 | > 100 | > 100 | > 100 | > 100 |
| CC(NC(=O)OC(C)(C)C)C(=O)C(N)=O (stereo unspecified) | > 100 | > 100 | > 100 | > 100 | – | > 100 | > 100 | > 100 | – |
| O=S(CCCl)c1c2ccccc2nc2ccccc12 (stereo unspecified) | > 100 | > 100 | > 100 | > 100 | > 100 | > 100 | > 100 | > 100 | > 100 |
| Cc1[nH]c(=O)nc(NCCNCCO)c1C(=O)Nc1c2ccccc2nc2ccccc12 | > 100 | > 100 | > 100 | > 100 | > 100 | > 100 | > 100 | > 100 | > 100 |
| O=C(Cc1ccc(Cl)c(Cl)c1)N(CCc1ccc(Cl)c(Cl)c1)CCN1CCCC1 | 3.33 | 3.77 | 4.74 | 3.27 | 3.67 | 4.73 | 3.15 | 3.26 | 3.27 |
| O=C(CCCl)NNC1=NCCN1 | > 100 | > 100 | > 100 | > 100 | > 100 | > 100 | > 100 | > 100 | > 100 |
| O=C(CCc1cccc(O)c1)NCCc1ccc(O)cc1 | – | > 100 | > 100 | > 100 | > 100 | > 100 | > 100 | > 100 | > 100 |
| CCCCCCCCCCCCCCCCCCOCC(CO[P+](=O)O)OCCCCCCCCCCCCCCCCCC (stereo unspecified) | > 50 | > 50 | > 50 | > 50 | > 50 | > 50 | > 50 | > 50 | > 50 |
| Cc1cc(C)c2c(=O)n(CN3CCC(O)(c4ccccc4)CC3)sc2n1 | 57.3 | > 100 | > 100 | > 100 | > 100 | > 100 | > 100 | > 100 | > 100 |
| CC1(C)CN=C(Nc2cccc(C(F)(F)F)c2)S1 | > 100 | > 100 | > 100 | > 100 | > 100 | > 100 | > 100 | 16.3 | > 100 |
| N#CC1=C(N)OC(c2ccc([N+](=O)[O-])cc2)C1(C#N)C#N (stereo unspecified) | 23.5 | 34.7 | 21.9 | 42.4 | > 48.4 | 51.7 | > 78.2 | 30.4 | 31.1 |
| C=C1c2nc3ccccc3n2C=C(c2ccccc2)N1c1ccccc1 | 28.8 | > 100 | > 100 | > 100 | 59.8 | > 100 | > 100 | > 100 | > 100 |
| OCCN(CCO)c1ccc2c(c1)Cc1ccccc1-2 | > 100 | > 100 | 73.1 | 60.5 | > 100 | > 100 | > 100 | > 100 | – |
| COc1ccc(/C=C/C(=O)N[C@@H]2C(=O)N3[C@@H]2SC(C)(C)[C@@H]3C(=O)O)cc1 | > 100 | > 100 | > 100 | > 100 | > 100 | > 100 | > 100 | > 100 | – |
| Cc1ccc(-c2csc(=Nc3c(C)n(C)n(-c4ccccc4)c3=O)n2CCO)cc1 | > 100 | > 100 | > 100 | > 100 | > 100 | > 100 | > 100 | > 100 | – |
| O=C(O)c1ccc(C(c2c(O)c3ccccc3oc2=O)c2c(O)c3ccccc3oc2=O)cc1 | > 100 | > 100 | 6.04 | > 100 | > 100 | > 100 | > 100 | > 100 | – |
| NCCCN1CCN(CC(=O)O)CCN(CCCN)CCN(CC(=O)O)CC1 | > 100 | > 100 | > 100 | > 100 | > 100 | > 100 | > 100 | > 100 | > 100 |
| CC(=O)OCC1OC(n2c(N)c(C#N)c(-c3ccc(C)cc3)c(C#N)c2=S)C(OC(C)=O)C(OC(C)=O)C1OC(C)=O (stereo unspecified) | 34 | > 100 | 28.5 | 51.3 | > 100 | 91.9 | 30.6 | > 100 | 45.4 |
| N#CC(c1cc2c(cc1Br)OCO2)N1CCOCC1 (stereo unspecified) | > 100 | 71.2 | > 100 | > 100 | > 100 | > 100 | – | > 100 | > 100 |
| O=c1[nH]nc(Cc2ccc(Cl)cc2)n1/N=C\CC/C=N\n1c(Cc2ccc(Cl)cc2)n[nH]c1=O | > 100 | > 100 | > 100 | > 100 | > 100 | > 66.3 | 46 | > 58.4 | 41.3 |
| Cc1n[nH]c(=O)n1/N=C/c1c[nH]c2ccccc12 | > 100 | > 100 | > 100 | > 100 | > 100 | > 100 | > 100 | > 100 | > 100 |

| SMILES | TGI [1] [µM] | TGI [2] [µM] | TGI [3] [µM] | TGI [4] [µM] | TGI [5] [µM] | TGI [6] [µM] | TGI [7] [µM] | TGI [8] [µM] | TGI [9] [µM] |
| --- | --- | --- | --- | --- | --- | --- | --- | --- | --- |
| N#CCCN(CCC#N)c1ccc(/C=C2\N=C(c3ccccc3)N(c3ccccn3)C2=O)cc1 | – | > 100 | > 100 | > 100 | > 100 | > 100 | > 100 | > 100 | > 100 |
| CCOC(=O)NC(NC(C)CC)(C(F)(F)F)C(F)(F)F (stereo unspecified) | – | > 100 | > 100 | > 100 | > 100 | > 100 | > 100 | > 100 | > 100 |
| Cc1c2c(n(Cc3ccccn3)c1C)NN=C(C#N)S2(=O)=O | > 100 | > 100 | > 100 | > 100 | > 100 | > 100 | > 100 | > 100 | > 100 |
| O=c1oc2ccc3ccccc3c2cc1-c1nc2ccccc2o1 | > 100 | > 74.9 | 39.3 | 20.5 | > 63.2 | 51.7 | 53.1 | 35.6 | 30 |
| CN(C)c1ccc(/C=C(\NC(=O)c2ccccc2)C(=O)NC(CCC(=O)O)C(=O)O)cc1 (stereo unspecified) | > 100 | > 100 | > 100 | > 100 | > 100 | > 100 | > 100 | > 100 | > 100 |
| N/N=C1/CCCc2nonc21 | > 100 | > 100 | > 100 | > 100 | > 100 | > 100 | > 100 | > 100 | > 100 |
| COc1cccc(N2C(=O)CSC2c2cc(OC)c(OC)c(OC)c2)c1 (stereo unspecified) | 85.2 | > 100 | > 100 | > 100 | > 100 | 91.4 | > 100 | > 100 | > 100 |
| S=C(S)N1CCN(c2ccc(Cl)c(Cl)c2)CC1 | 36.6 | 46.9 | 75.3 | 70.9 | 34.5 | > 100 | 90.7 | 40.7 | 84.6 |
| CCCCCCCC(=O)NC(C)(C)C(=O)NC(COC(C)(C)C)C(=O)NC(CC(C)C)C(=O)NC(C)(C)C(=O)NC(COC(C)(C)C)C(=O)NC(COC(C)(C)C)C(=O)NC(CC(C)C)C(=O)NC(C)(C)C(=O)NC(COC(C)(C)C)C(=O)NC(C(=O)NC(CC(C)C)C(=O)OC)C(C)CC (stereo unspecified) (Octanoyl-[Aib]S(tBu)L[Aib]S(tBu)S(tBu)L[Aib]S(tBu)IL-OMe; configuration not given here) | – | 9.36 | 10.6 | 17 | 22 | > 25 | 12.8 | 15.9 | 12.5 |
| COc1ccc2c(c1)N=C1CSC(c3cc([N+](=O)[O-])ccc3Cl)N1C2 (stereo unspecified) | 33 | 59.3 | 71.5 | 42.6 | 46.3 | 74.1 | 71.2 | 50 | > 100 |
| Cn1c2ccccc2c(=NNc2ccccc2C(=O)O)c2ccccc21 | 46.8 | 42.3 | 67.6 | 30.5 | 42.2 | 60.8 | 34.6 | 59.1 | 94.3 |
| COc1cc([N+](=O)[O-])ccc1NC1=CC(=O)CCC1 | > 100 | > 100 | > 100 | > 100 | > 100 | > 100 | > 100 | > 100 | > 100 |
| CCOC(=O)c1[nH]c2ccccc2c1C(=O)C[C@H](NC(=O)C(F)(F)F)C(=O)OC | > 100 | > 100 | > 100 | > 100 | > 100 | > 100 | > 100 | > 100 | > 100 |
| FC(F)(Sc1ccccc1)c1nc2ccccc2o1 | > 100 | > 100 | > 100 | > 100 | > 100 | > 100 | > 100 | > 100 | > 100 |
| CNC(=O)CCCN(C)C(=O)CCCCC(=O)N(C)C | > 100 | > 100 | > 100 | > 100 | > 100 | > 100 | > 100 | > 100 | > 100 |
| c1ccc2c(c1)Nc1nc3nonc3nc1N2 | > 100 | > 100 | > 100 | > 100 | > 100 | > 100 | > 100 | > 100 | > 100 |
| CC(C)NC(=O)OCc1c(COC(=O)NC(C)C)n(C)c2c1ccc1ccccc12 | 9.86 | 17.1 | 2.6 | 1.88 | 15.5 | 7.39 | 4.24 | 3.6 | 3.23 |
| CN(CCCCN(C)CCc1ccc(Cl)c(Cl)c1)CCCCN1CCCC1 | 0.384 | 4.52 | 2.95 | 2.84 | 1.92 | 13.4 | 1.97 | 2.25 | 5.57 |
| CCN(CC)CCCNc1nc2ccccc2c2[nH]c3ccc(OC)cc3c12 | 2.33 | 2.73 | 9.53 | 2.87 | 2.03 | 2.92 | 3.23 | 3.29 | 3.72 |
| CCC(C)C(CC(=O)N1CCCC1C(=O)NC(C(=O)NC(C(=O)NCC(=O)NC(CC(N)=O)C(=O)NC(C(=O)NC(C(=O)NC(CCCCN)C(N)=O)C(C)CC)C(C)CC)C(C)C)C(C)CC)NC(=O)C(N)C(C)CC (stereo not drawn) (H-I[β3hI]PIVGNIIK-NH2; configuration not given here) | – | > 50 | > 50 | > 50 | > 50 | > 50 | > 50 | > 50 | > 50 |
| CC(C)NC(=O)OCCN=C1c2ccccc2CCc2ccccc21 | 39 | 62.4 | 55 | 57.5 | > 100 | 99.5 | 50.6 | 66.7 | > 100 |
| O=c1[nH]nc(Cc2ccc(Cl)cc2)n1/N=C\c1ccc(/C=N/n2c(Cc3ccc(Cl)cc3)n[nH]c2=O)cc1 | – | > 100 | > 100 | > 100 | > 100 | > 100 | 97.9 | 70.5 | > 100 |
